# In patent US9617256B2 (priority 2007, dated 2017):
# Read-outs that look alike come from different tables or passages of the source.
# Legend:
# [1] = test system: APAE006 (strain of P. aeruginosa in which all efflux pumps are inactivated); experiment: microbe, parasite or virus in culture; assay type: cell-based; settings: Pseudomonas aeruginosa, read-out: MIC APAE006, APAE006, all efflux pumps inactivated
# Experimental: (§1) Bacterial isolates were cultivated from −70° C. frozen stocks by overnight passages at 35° C. in ambient air on Mueller-Hinton agar (Beckton Dickinson, Franklin Lakes, N.J.). Clinical isolates tested were obtained from various geographically diverse hospitals in the US and abroad (Focus Diagnostics, Herndon, Va. and JMI, North Liberty, Iowa). Quality control strains were from the American Type Culture Collection (ATCC; Rockville, Md.). Additional primary panel strains were generated using standard molecular biology techniques.
# (§2) Minimum Inhibitory Concentrations (MICs) were determined by the broth microdilution method in accordance with the Clinical and Laboratory Standards Institute (CLSI) guidelines. In brief, organism suspensions were adjusted to a 0.5 McFarland standard to yield a final inoculum between 3×10^5 and 7×10^5 colony-forming units (CFU)/mL. Drug dilutions and inocula were made in sterile, cation adjusted Mueller-Hinton Broth (Beckton Dickinson). An inoculum volume of 100 μL was added to wells containing 100 μL of broth with 2-fold serial dilutions of drug. All inoculated microdilution trays were incubated in ambient air at 35° C. for 18-24 hours. […] Performance of the assay was monitored by the use of laboratory quality-control strains and levofloxacin, a compound with a defined MIC spectrum, in accordance with CLSI guidelines.
# (§3) *AECO001 is ATCC25922, AECO063 is ATCC25922 bearing an acrAB mutation, APAE001 is ATCC27853, APAE006 is a strain of P. aeruginosa in which all efflux pumps are inactivated, APAE006+PMBN indicates MICs with the indicated strain in the presence of 8 micrograms per milliliter of polymyxin B nonapeptide, AABA1060 is a clinical isolate of Acinetobacter baumannii, ASAU001 is a laboratory strain of S. aureus (ATCC29213).
# APAE001 (ATCC27853) = experiment: MIC broth microdilution, APAE001; assay type: cell-based, P. aeruginosa; settings: Pseudomonas aeruginosa, ATCC27853, read-out: MIC APAE001, APAE001 (ATCC27853)
# Experimental: as §1, §2, §3
# [2] = test system: AABA1060 (clinical isolate of Acinetobacter baumannii); experiment: MIC broth microdilution, AABA1060; assay type: cell-based; settings: Acinetobacter baumannii, read-out: MIC AABA1060
# Experimental: as §1, §2, §3
# [3] = test system: AECO063 (ATCC25922 bearing an acrAB mutation); experiment: microbe, parasite or virus in culture; assay type: cell-based, E. coli; settings: Escherichia coli, ATCC25922, read-out: MIC AECO063
# Experimental: as §1, §2, §3
# [4] = test system: ASAU001 (laboratory strain of S. aureus, ATCC29213); experiment: MIC broth microdilution, ASAU001; assay type: cell-based; settings: Staphylococcus aureus, ATCC29213, read-out: MIC ASAU001
# Experimental: as §1, §2, §3
# AECO001 (ATCC25922) = experiment: MIC broth microdilution, AECO001; assay type: cell-based, E. coli; settings: for MIC: Escherichia coli; for Ratio of MICs on AECO001 [Cpd (A = —CHCH3NH2)/Cpd (A = —C(CH3)2NH2)]: MIC of paired compound with A = —CHCH3NH2 divided by MIC of compound with A = —C(CH3)2NH2, n=2 data, pairs identical except for the A moiety
# Experimental: as §1, §2, §3
# [5] = test system: APAE006 in the presence of 8 micrograms per milliliter of polymyxin B nonapeptide; assay type: cell-based, P. aeruginosa; settings: APAE006 with 8 micrograms per milliliter polymyxin B nonapeptide
# Experimental: as §1, §2, §3
# [6] = ATCC25922, read-out: MIC AECO001
# [7] = ATCC25922, read-out: MIC AECO001 HSA AGP
Structure (SMILES),MIC [1] [µg/mL],MIC (APAE001 (ATCC27853)) [µg/mL],MIC [2] [µg/mL],MIC [3] [µg/mL],MIC [4] [µg/mL],MIC (AECO001 (ATCC25922); [6]) [µg/mL],MIC (AECO001 (ATCC25922); [7]) [µg/mL],MIC APAE006 + PMBN [5],Ratio of MICs on AECO001 [Cpd (A = —CHCH3NH2)/Cpd (A = —C(CH3)2NH2)] (AECO001 (ATCC25922))
Cn1cnc(C#CC#Cc2ccc(C(=O)N[C@H](C(=O)NO)C(C)(C)N)cc2)c1 [Example 89-5],< 2,< 2,2 to 16,< 2,16 to 64,2 to 16,2 to 16,A (MIC's of 2.0 μg/mL or less = A),
CC(C)CC#CC#Cc1ccc(C(=O)N[C@H](C(=O)NO)C(C)(C)O)cc1 [Example 91-19],< 2,2 to 16,2 to 16,< 2,16 to 64,< 2,< 2,A (MIC's of 2.0 μg/mL or less = A),
Cn1cc(C#CC#Cc2ccc(C(=O)N[C@H](C(=O)NO)C(C)(C)N)cc2)cn1 [Example 89-2],< 2,< 2,< 2,< 2,16 to 64,< 2,2 to 16,A (MIC's of 2.0 μg/mL or less = A),1.6
CC(C)(O)[C@H](NC(=O)c1ccc(C#CC#Cc2ccc(CN3CCOCC3)cc2)cc1)C(=O)NO [Example 86-4],< 2,2 to 16,2 to 16,< 2,16 to 64,< 2,2 to 16,A (MIC's of 2.0 μg/mL or less = A),
CC(C)(N)[C@H](NC(=O)c1ccc(C#Cc2ccc(CNCCF)cc2)cc1)C(=O)NO [Example 122-6],< 2,< 2,2 to 16,< 2,16 to 64,< 2,< 2,A (MIC's of 2.0 μg/mL or less = A),2.1
"C[C@@H](N)[C@H](NC(=O)c1ccc(C#CC#C[C@H](C)N2CCOCC2)cc1)C(=O)NO [Example 92-2, N-((2S,3R)-3-amino-1-(hydroxyamino)-1-oxobutan-2-yl)-4-((S)-5-morpholinohexa-1,3-diynyl)benzamide]",2 to 16,16 to 64,16 to 64,2 to 16,16 to 64,16 to 64,16 to 64,B (MIC's of greater than 2.0 μg/mL to 16.0 μg/mL = B),
CC(C)(O)[C@H](NC(=O)c1ccc(C#CC#Cc2ccsc2)cc1)C(=O)NO [Example 88-14],< 2,< 2,< 2,< 2,16 to 64,< 2,2 to 16,A (MIC's of 2.0 μg/mL or less = A),
CC(C)(N)[C@H](NC(=O)c1ccc(C#C/C=C/c2ccc(CNC3CC3)cc2)cc1)C(=O)NO [Example 102-6],< 2,< 2,2 to 16,< 2,16 to 64,< 2,2 to 16,A (MIC's of 2.0 μg/mL or less = A),
CC(C)(O)[C@H](NC(=O)c1ccc(C#CC#CC2CC2)cc1)C(=O)NO [Example 91-6],< 2,< 2,< 2,< 2,16 to 64,< 2,< 2,A (MIC's of 2.0 μg/mL or less = A),
CC(C)(O)[C@H](NC(=O)c1ccc(C#C/C=C/c2ccncc2)cc1)C(=O)NO [Example 106-2],< 2,2 to 16,2 to 16,< 2,16 to 64,< 2,2 to 16,A (MIC's of 2.0 μg/mL or less = A),
CC(C)(N)[C@H](NC(=O)c1ccc(C#CC#Cc2cncs2)cc1)C(=O)NO [Example 88-16],< 2,< 2,< 2,< 2,16 to 64,< 2,2 to 16,A (MIC's of 2.0 μg/mL or less = A),
CC(C)(O)[C@H](NC(=O)c1ccc(C#C/C=C/c2cccnc2)cc1)C(=O)NO [Example 106-5],< 2,2 to 16,2 to 16,< 2,16 to 64,< 2,2 to 16,A (MIC's of 2.0 μg/mL or less = A),
CC(C)(N)[C@H](NC(=O)c1ccc(C#CC#Cc2ccc(N)cc2)cc1)C(=O)NO [Example 82-25],< 2,< 2,< 2,< 2,16 to 64,< 2,< 2,A (MIC's of 2.0 μg/mL or less = A),1.6
CCOCc1ccc(C#Cc2ccc(C(=O)NC(C(=O)NO)C(C)(C)N)cc2)cc1 (stereo not shown) [Compound 126-2],< 2,2 to 16,< 2,< 2,16 to 64,< 2,< 2,A (MIC's of 2.0 μg/mL or less = A),
"C[C@@H](N)[C@H](NC(=O)c1ccc(C#Cc2ccc(OC3CC3)cc2)cc1)C(=O)NO [Example 125-1, N-((1S,2R)-2-Amino-1-hydroxycarbamoyl-propyl)-4-(4-cyclopropoxy-phenylethynyl)-benzamide]",< 2,2 to 16,< 2,< 2,16 to 64,< 2,2 to 16,A (MIC's of 2.0 μg/mL or less = A),
CC(C)(O)[C@H](NC(=O)c1ccc(C#CC#Cc2ccc(F)cc2)cc1)C(=O)NO [Example 82-19],< 2,2 to 16,< 2,< 2,16 to 64,< 2,2 to 16,A (MIC's of 2.0 μg/mL or less = A),
C[C@@H](N)[C@H](NC(=O)c1ccc(C#CC2CC2c2ccccc2)cc1)C(=O)NO (stereo partly shown) [Example 134-2],< 2,2 to 16,2 to 16,2 to 16,16 to 64,2 to 16,16 to 64,A (MIC's of 2.0 μg/mL or less = A),
CC(C)(N)[C@H](NC(=O)c1ccc(C#CC#CC2CCC2)cc1)C(=O)NO [Example 91-16],< 2,< 2,< 2,< 2,2 to 16,< 2,< 2,A (MIC's of 2.0 μg/mL or less = A),2.6
"C[C@@H](N)[C@H](NC(=O)c1ccc(C#Cc2ccc(NC(=O)CNC3CC3)cc2)cc1)C(=O)NO [Example 130-1, N-((1S,2R)-2-Amino-1-hydroxycarbamoyl-propyl)-4-[4-(2-cyclopropylamino-acetylamino)-phenylethynyl]-benzamide]",< 2,< 2,2 to 16,< 2,16 to 64,2 to 16,16 to 64,A (MIC's of 2.0 μg/mL or less = A),
C[C@@H](N)[C@H](NC(=O)c1ccc(C#CC(O)c2ccc(CO)cc2)cc1)C(=O)NO (stereo partly shown) [Example 137-18],2 to 16,16 to 64,16 to 64,16 to 64,16 to 64,16 to 64,16 to 64,B (MIC's of greater than 2.0 μg/mL to 16.0 μg/mL = B),
CC(C)CCC#CC#Cc1ccc(C(=O)N[C@H](C(=O)NO)C(C)(C)O)cc1 [Example 91-18],2 to 16,2 to 16,2 to 16,< 2,16 to 64,< 2,< 2,A (MIC's of 2.0 μg/mL or less = A),
